In PubChem BioAssay AID330 (DTP/NCI, 2004):
Where “and” joins values, the source holds several entries; their conditions need not be identical. Equal values may be shown once. Inconclusive results and toxic doses are left out.

Tested on: P388 leukemia ip, CD2F1 mice, survival T/C
Test: NCI In Vivo Anticancer Drug Screen. Data for tumor model P388 Leukemia (intraperitoneal) in CD2F1 (CDF1) mice
Conditions: endpoint: median survival time, higher = longer survival
Summary of the method: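 Mice carrying the transplanted tumor received test compound or vehicle. Survival was recorded in each group, and the value is the treated-group measurement divided by that of the vehicle-treated control group.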

With `O=C1c2ccccc2C(=O)c2c(NCCNCCO)ccc(NCCNCCO)c21` the T/C (dose: 0.1 mg/kg/injection, schedule: Q04DX003 (ip), vehicle: saline) was 108 % of control, the T/C (dose: 0.3 mg/kg/injection, schedule: Q04DX003 (ip), vehicle: saline) was 116 % of control and the T/C (dose: 0.5 mg/kg/injection, schedule: Q01DX009 (ip), vehicle: water) was 165 % of control. The T/C (dose: 0.5 mg/kg/injection, schedule: Q04DX003 (ip), vehicle: saline) was 118 % of control, the T/C (dose: 1.0 mg/kg/injection, schedule: Q01DX009 (ip), vehicle: water) was 167 % of control and the T/C (dose: 1.0 mg/kg/injection, schedule: Q04DX003 (ip), vehicle: saline) was 110 % of control and 115 % of control. The T/C (dose: 1.25 mg/kg/injection, schedule: Q01DX009 (ip), vehicle: saline) was 192 % of control, the T/C (dose: 1.25 mg/kg/injection, schedule: Q01DX009 (ip), vehicle: water) was 155 % of control and the T/C (dose: 2.0 mg/kg/injection, schedule: Q01DX009 (ip), vehicle: saline) was 199 % of control. For the same compound, the T/C (dose: 2.0 mg/kg/injection, schedule: Q04DX003 (ip), vehicle: saline) was 117 % of control, the T/C (dose: 3.13 mg/kg/injection, schedule: Q01DX005 (ip), vehicle: saline) was 169 % of control and the T/C (dose: 3.13 mg/kg/injection, schedule: Q01DX005 (iv), vehicle: saline) was 114 % of control. For the same compound, the T/C (dose: 3.89 mg/kg/injection, schedule: Q01DX009 (ip), vehicle: saline) was 200 % of control and 261 % of control, the T/C (dose: 3.89 mg/kg/injection, schedule: Q01DX009 (sc), vehicle: saline) was 118 % of control and the T/C (dose: 4.0 mg/kg/injection, schedule: Q01DX009 (ip), vehicle: saline) was 233 % of control. For the same compound, the T/C (dose: 4.0 mg/kg/injection, schedule: Q04DX003 (ip), vehicle: saline) was 117 % of control, the T/C (dose: 5.0 mg/kg/injection, schedule: Q01DX005 (ip), vehicle: saline) was 223 % of control and the T/C (dose: 5.0 mg/kg/injection, schedule: Q01DX005 (iv), vehicle: saline) was 116 % of control. For the same compound, the T/C (dose: 6.22 mg/kg/injection, schedule: Q04DX003 (iv), vehicle: saline) was 109 % of control and 118 % of control, the T/C (dose: 6.25 mg/kg/injection, schedule: Q01DX005 (ip), vehicle: saline) was 205 % of control and the T/C (dose: 6.25 mg/kg/injection, schedule: Q01DX009 (ip), vehicle: water) was 156 % of control. The T/C (dose: 6.48 mg/kg/injection, schedule: Q01DX009 (ip), vehicle: saline) was 207 % of control and 245 % of control, the T/C (dose: 7.78 mg/kg/injection, schedule: Q01DX001 (iv), vehicle: saline) was 107 % of control and 111 % of control and the T/C (dose: 7.78 mg/kg/injection, schedule: Q01DX005 (ip), vehicle: saline) was 261 % of control. The T/C (dose: 7.78 mg/kg/injection, schedule: Q04DX003 (ip), vehicle: saline) was 181 % of control, the T/C (dose: 8.0 mg/kg/injection, schedule: Q04DX003 (ip), vehicle: Klucel (hydroxypropylcellulose) (HPC)) was 172 % of control and the T/C (dose: 8.0 mg/kg/injection, schedule: Q04DX003 (ip), vehicle: saline) was 153 % of control. The T/C (dose: 10.0 mg/kg/injection, schedule: Q01DX001 (iv), vehicle: saline) was 107 % of control, the T/C (dose: 10.0 mg/kg/injection, schedule: Q01DX005 (ip), vehicle: saline) was 258 % of control and the T/C (dose: 10.0 mg/kg/injection, schedule: Q04DX003 (ip), vehicle: saline) was 178 % of control. The T/C (dose: 10.0 mg/kg/injection, schedule: Q04DX003 (iv), vehicle: saline) was 108 % of control, the T/C (dose: 10.4 mg/kg/injection, schedule: Q04DX003 (ip), vehicle: saline) was 196 % of control and 208 % of control and the T/C (dose: 10.4 mg/kg/injection, schedule: Q04DX003 (iv), vehicle: saline) was 117 % of control. For the same compound, the T/C (dose: 10.8 mg/kg/injection, schedule: Q01DX009 (ip), vehicle: saline) was 209 % of control, the T/C (dose: 10.8 mg/kg/injection, schedule: Q01DX009 (sc), vehicle: saline) was 178 % of control and the T/C (dose: 12.5 mg/kg/injection, schedule: Q01DX005 (ip), vehicle: saline) was 241 % of control. The T/C (dose: 12.5 mg/kg/injection, schedule: Q01DX009 (ip), vehicle: water) was 187 % of control, the T/C (dose: 12.5 mg/kg/injection, schedule: Q04DX003 (ip), vehicle: saline) was 176 % of control and the T/C (dose: 13.0 mg/kg/injection, schedule: Q01DX001 (iv), vehicle: saline) was 111 % of control and 112 % of control. The T/C (dose: 13.0 mg/kg/injection, schedule: Q01DX005 (iv), vehicle: saline) was 161 % of control, the T/C (dose: 13.0 mg/kg/injection, schedule: Q04DX003 (ip), vehicle: saline) was 156 % of control and 203 % of control and the T/C (dose: 13.8 mg/kg/injection, schedule: Q04DX003 (ip), vehicle: saline) was 209 % of control. The T/C (dose: 15.0 mg/kg/injection, schedule: Q01DX009 (ip), vehicle: saline) was 113 % of control, the T/C (dose: 16.0 mg/kg/injection, schedule: Q01DX009 (ip), vehicle: saline) was 177 % of control and the T/C (dose: 16.0 mg/kg/injection, schedule: Q04DX003 (ip), vehicle: Klucel (hydroxypropylcellulose) (HPC)) was 175 % of control. The T/C (dose: 17.3 mg/kg/injection, schedule: Q04DX003 (ip), vehicle: saline) was 216 % of control and 241 % of control, the T/C (dose: 18.0 mg/kg/injection, schedule: Q01DX009 (sc), vehicle: saline) was 205 % of control and the T/C (dose: 20.0 mg/kg/injection, schedule: Q01DX001 (ip), vehicle: saline) was 163 % of control. For the same compound, the T/C (dose: 20.0 mg/kg/injection, schedule: Q01DX001 (iv), vehicle: saline) was 115 % of control, the T/C (dose: 20.0 mg/kg/injection, schedule: Q01DX005 (iv), vehicle: saline) was 173 % of control and the T/C (dose: 21.6 mg/kg/injection, schedule: Q01DX001 (ip), vehicle: saline) was 178 % of control and 213 % of control. For the same compound, the T/C (dose: 21.6 mg/kg/injection, schedule: Q01DX001 (iv), vehicle: saline) was 117 % of control, the T/C (dose: 24.0 mg/kg/injection, schedule: Q04DX003 (ip), vehicle: saline) was 116 % of control and the T/C (dose: 25.0 mg/kg/injection, schedule: Q01DX005 (iv), vehicle: saline) was 178 % of control. The T/C (dose: 25.0 mg/kg/injection, schedule: Q01DX009 (ip), vehicle: water) was 122 % of control, the T/C (dose: 25.0 mg/kg/injection, schedule: Q04DX003 (ip), vehicle: Klucel (hydroxypropylcellulose) (HPC)) was 157 % of control and the T/C (dose: 25.0 mg/kg/injection, schedule: Q04DX003 (ip), vehicle: saline) was 246 % of control. The T/C (dose: 28.8 mg/kg/injection, schedule: Q04DX003 (ip), vehicle: saline) was 252 % of control, the T/C (dose: 30.0 mg/kg/injection, schedule: Q01DX009 (sc), vehicle: saline) was 227 % of control and the T/C (dose: 32.0 mg/kg/injection, schedule: Q04DX003 (ip), vehicle: Klucel (hydroxypropylcellulose) (HPC)) was 114 % of control. For the same compound, the T/C (dose: 32.0 mg/kg/injection, schedule: Q04DX003 (ip), vehicle: saline) was 166 % of control, the T/C (dose: 36.0 mg/kg/injection, schedule: Q01DX001 (ip), vehicle: saline) was 209 % of control and 233 % of control and the T/C (dose: 36.0 mg/kg/injection, schedule: Q01DX005 (ip), vehicle: saline) was 121 % of control. The T/C (dose: 40.0 mg/kg/injection, schedule: Q01DX001 (ip), vehicle: saline) was 197 % of control, the T/C (dose: 40.0 mg/kg/injection, schedule: Q01DX005 (ip), vehicle: saline) was 250 % of control and the T/C (dose: 40.0 mg/kg/injection, schedule: Q04DX003 (ip), vehicle: saline) was 214 % of control. The T/C (dose: 50.0 mg/kg/injection, schedule: Q04DX003 (ip), vehicle: Klucel (hydroxypropylcellulose) (HPC)) was 150 % of control and 174 % of control, the T/C (dose: 50.0 mg/kg/injection, schedule: Q04DX003 (ip), vehicle: saline) was 192 % of control and the T/C (dose: 60.0 mg/kg/injection, schedule: Q01DX001 (ip), vehicle: saline) was 218 % of control and 224 % of control. The T/C (dose: 64.0 mg/kg/injection, schedule: Q04DX003 (ip), vehicle: Klucel (hydroxypropylcellulose) (HPC)) was 163 % of control, the T/C (dose: 64.0 mg/kg/injection, schedule: Q04DX003 (ip), vehicle: saline) was 166 % of control and 201 % of control and the T/C (dose: 80.0 mg/kg/injection, schedule: Q01DX001 (ip), vehicle: saline) was 241 % of control. For the same compound, the T/C (dose: 96.0 mg/kg/injection, schedule: Q04DX003 (ip), vehicle: saline) was 152 % of control and 153 % of control, the T/C (dose: 100.0 mg/kg/injection, schedule: Q01DX001 (ip), vehicle: saline) was 210 % of control and the T/C (dose: 100.0 mg/kg/injection, schedule: Q04DX003 (ip), vehicle: Klucel (hydroxypropylcellulose) (HPC)) was 176 % of control and 178 % of control. For the same compound, the T/C (dose: 128.0 mg/kg/injection, schedule: Q04DX003 (ip), vehicle: saline) was 173 % of control and 186 % of control, the T/C (dose: 167.0 mg/kg/injection, schedule: Q01DX001 (ip), vehicle: saline) was 216 % of control and the T/C (dose: 192.0 mg/kg/injection, schedule: Q04DX003 (ip), vehicle: saline) was 150 % of control. The T/C (dose: 200.0 mg/kg/injection, schedule: Q04DX003 (ip), vehicle: Klucel (hydroxypropylcellulose) (HPC)) was 157 % of control.

With `CNC1NC(=O)c2ccccc2N1Cc1ccc(F)cc1` (configuration not stated) the T/C (dose: 60.0 mg/kg/injection, schedule: Q01DX005 (ip), vehicle: Klucel (hydroxypropylcellulose) (HPC)) was 94 % of control, the T/C (dose: 120.0 mg/kg/injection, schedule: Q01DX005 (ip), vehicle: Klucel (hydroxypropylcellulose) (HPC)) was 92 % of control and the T/C (dose: 240.0 mg/kg/injection, schedule: Q01DX005 (ip), vehicle: Klucel (hydroxypropylcellulose) (HPC)) was 94 % of control.
